The conditions of data set [1]: oral dosing; cited from earlier work.
Data set [2] deals with humans with neurodegenerative disease. The conditions noted are these: Alzheimer's Disease and vascular dementia; cited from earlier work.
In data set [3] the test system is spinal nerve transection in the rat. The data set can be described thus: Spinal nerve transection model of chronic neuropathic pain, mechanical allodynia (von Frey filaments). It counts as in vivo. The following applies: for mechanical allodynia: L5 spinal nerve transection, dose-dependent. The protocol:
Experiments were performed using a well-established animal model for chronic pain, spinal nerve transection in the rat. The model measures changes in mechanical allodynia, or an increased sensitivity following non-noxious stimulus, such as touch. Rats were injected intraperitdneally one day before and then daily for ten days following nerve transection. […] The effect was dose-dependent, with larger reductions seen with higher doses of the drug.
The same model. was used with rats injected intrathecally with either saline or propentofylline (1 or 3 μg), daily for 10 days. […] The responses were also dose-dependent with the largest reduction seen at the highest dose tested.
Surgery was performed under inhalation anesthesia using halothane in 100% oxygen at 4% and maintained at 2%. Each rat received a single unilateral lesion directed at a left L5 spinal root or spinal nerve. The nerve was identified, freed from adjacent nerves and transected. For sham lesions, a minilaminectomy was performed of the L5 vertebral segment without lesioning. Animals were allowed to recover from anesthesia and were not subjected to any additional surgical procedures or anesthesia until the end of the study when they were euthanized.
Propentofylline was injected intraperitoneally at doses of 1 and 10 mg/kg the day before and for each day of testing (10 days). Saline injections served as a control. Other rats were injected intrathecally at doses of 1 and 3 μg on each day of testing.
Mechanical hypersensitivity was measured as the frequency of foot withdrawals elicited by a defined mechanical stimulus. […]
In blinded testing, rats were subjected to sequential series of 10 tactile stimulations to the plantar surface of the ipsilateral hindpaw using 2 and 12 gauge von Frey filaments (Stoelting Co., WoodDale, Ill.) sequentially. […] Mechanical sensitivity was assessed by recording the total number of responses elicited during three successive trials separated by at least 10 minutes.

Regarding `CCCn1cnc2c1c(=O)n(CCCCC(C)=O)c(=O)n2C` [propentofylline, Propentofylline], the absorption and metabolism entry in data set [1] was “well absorbed and extensively metabolized”. Further, the “safety and efficacy in clinical trials” value in data set [2] was “both safe and effective”. For the same compound, the mechanical allodynia result is on record as “significant decrease in mechanical allodynia” in data set [3] (intraperitoneal 1 and 10 mg/kg, one day before and daily for ten days); “significant decrease in mechanical allodynia” in data set [3] (intrathecal 1 or 3 μg daily for 10 days vs saline). Moreover, the “responses to stimulation (foot withdrawals to von Frey filaments)” value in data set [3] (increasing doses, both central and peripheral routes) is reported as “dose-dependent decreases in responses to stimulation”.

Values taken from patent publication US6413976B1, “Compositions and method for decreasing neuropathic pain” (Trustees of Dartmouth College, priority 1999, dated 2002).
